{
  "source": "patent US20250228756A1",
  "about": "“Anhydrous Urea Emulsions with a Retinoid Agent” (Baek Clinical Inc., priority 2021, published 2025)",
  "key": {"[1]": {"experiment": "Assessment of formulation components: solubility in non-aqueous solvents", "format": "physicochemical", "procedure": "A series of experiments were performed to assess and optimize the components of the subject formulations. AA refers to L-ascorbic acid. U refers to urea. % values are wt %.\nAdditional ingredients were chosen for their compatibility with (e.g., miscibility in) 1,3 propanediol, 1,2 propanediol, and 1,3 butanediol."}, "[2]": {"details": "in most solvents; cited from earlier work"}, "skin [3]": {"system": "skin", "details": "cited from earlier work"}, "skin [4]": {"system": "skin", "details": "concentrations of 0.2%; clinical data from SEPPIC; cited from earlier work"}},
  "note": "Read-outs that look alike come from different tables or passages of the source.",
  "data": [
    {"compound": "COc1cc(CC(C(C)=O)C(C)=O)ccc1O", "note": "[Acetyl zingerone]", "values": [
      {"measurement": "solubility", "setting": "[1]; in 1,3 propanediol, 1,2 propanediol and 1,3 butanediol at the desired concentrations (0.5-1%)", "value": "readily soluble"}
    ]},
    {"compound": "O=C(O)CCCCCCCC(=O)O", "note": "[AzA, Azelaic acid, reference compound]", "values": [
      {"measurement": "change of solubility by the presence of hydroxyethyl urea", "setting": "[1]; in 1,3 propanediol", "value": "slightly increased"},
      {"measurement": "concentration that can be solubilized", "setting": "[1]; in 1,3 propanediol", "value": "up to 10%"},
      {"measurement": "concentration that is possible to solubilize", "setting": "[1]; with 10% AA, 5% U in a 1,3 propanediol base", "value": 7.5, "unit": "%"},
      {"measurement": "solubility", "setting": "[2]", "value": "very poorly soluble"}
    ]},
    {"compound": "CC(C)(CO)[C@@H](O)C(=O)NCCCO", "note": "[Panthenol]", "values": [
      {"measurement": "concentration at which inhibition of transepidermal water loss is apparent", "setting": "skin [3]", "value": "≥ 1", "unit": "%"}
    ]},
    {"compound": "CC1(C)[C@@H](O[C@H]2O[C@H](C(=O)O)[C@@H](O)[C@H](O)[C@H]2O[C@@H]2O[C@H](C(=O)O)[C@@H](O)[C@H](O)[C@H]2O)CC[C@]2(C)[C@H]3C(=O)C=C4[C@@H]5C[C@@](C)(C(=O)O)CC[C@]5(C)CC[C@@]4(C)[C@]3(C)CC[C@@H]12", "note": "[glycyrrhizic acid, Glycyrrhizic acid]", "values": [
      {"measurement": "solubility", "setting": "[1]; in 1,3-propanediol", "value": "shows solubility"}
    ]},
    {"compound": "NC(N)=O", "note": "[urea]", "values": [
      {"measurement": "ability of solvent to solubilize urea", "setting": "[1]; solvent 1,2-hexanediol", "value": "moderate"},
      {"measurement": "ability of solvent to solubilize urea", "setting": "[1]; solvent 1,2-propanediol (propylene glycol)", "value": "moderate"},
      {"measurement": "ability of solvent to solubilize urea", "setting": "[1]; solvent 1,3-butanediol (butylene glycol)", "value": "moderate"},
      {"measurement": "ability of solvent to solubilize urea", "setting": "[1]; solvent 1,3-propanediol", "value": "moderate"},
      {"measurement": "ability of solvent to solubilize urea", "setting": "[1]; solvent 1,5-pentanediol, otherwise referred to as pentylene glycol", "value": "moderate"},
      {"measurement": "ability of solvent to solubilize urea", "setting": "[1]; solvent dimethyl isosorbide", "value": "very limited"},
      {"measurement": "ability of solvent to solubilize urea", "setting": "[1]; solvents glycerin and diglycerin", "value": "moderate"}
    ]},
    {"compound": "Madecassoside", "values": [
      {"measurement": "solubility", "setting": "[1]; at a concentration of 0.2% in 1,3 propanediol, 1,2 propanediol and 1,3 butanediol", "value": "soluble"},
      {"measurement": "ability to reduce erythema (skin redness)", "setting": "skin [4]", "value": "desirable ability to reduce erythema"}
    ]}
  ]
}
